Results as given in paper PMC13210772, “Dual FLT3/MAPK14 Proteolysis-Targeting Chimera (PROTAC) Induces Potent Acute Myeloid Leukemia Cell Death” (Pharmaceuticals, 2026).

What was measured:
Experiment in all cases: NanoBRET CELLinib128
Format in all cases: binding
[1] = molecular target: T1, PLK4 (Homo sapiens, UniProt O00444); details: 100% no effect, 0% complete tracer displacement, read-out: Tracer bound
T1 construct: Full-length kinase ORF (Promega, Madison, WI, USA) cloned in frame with a NanoLuc-vector was transfected into HEK293T cells; host or cells: HEK293T
Procedure: (§1) To get an impression about the binding strength of the PROTAC MA191 and the reference inhibitor MA68 to other kinases besides FLT3-ITD the binding on a kinase panel of further 128 representative protein kinases at 1 μM concentration was tested using the NanoBRET^TM cellular target engagement assay (CELLinib128 assay, CELLinib GmbH, Frankfurt, Germany). […] In none of the 128 kinases MA191 was able to displace the tracer (inhibitor) used by more than 50%, Table S1, Supplementary Information).
(§2) The CELLinib128 assay was performed by CELLinib GmbH, Frankfurt (Germany) as described previously. In brief: Full-length kinase ORF (Promega, Madison, WI, USA) cloned in frame with a NanoLuc-vector was transfected into HEK293T cells in Opti-MEM without phenol red (Life Technologies, Carlsbad, CA, USA) at a density of 2 × 10^5 cells/mL using FuGENE HD (Promega, E2312) and proteins were allowed to express for 20 h. For CDKs, where indicated below, an excess of an activator without an NLuc-fusion was cotransfected. […] The system was allowed to equilibrate at 37 °C for 2 h and 5% CO2 prior to BRET measurements. For PKCs, a chemical activator PMA was added in a final concentration of 1 µM was added together with test compounds and tracers (Promega, V1171). To measure BRET, NanoBRET^TM NanoGlo substrate + extracellular NanoLuc inhibitor (Promega, N2160) were added as per the manufacturer’s protocol, and filtered luminescence was measured (450 nm BP filter (donor) and 610 nm LP filter (acceptor)). For the 1-shot test compounds, data were normalized to the tracer control and the background control or control compound plateau and an average and SD were calculated. […] For the control compounds competitive displacement data were normalized to the tracer Ctrl and the background Ctrl and then plotted and fitted using GraphPad Prism 10 software using a normalized 3-parameter curve fit with the following equation: Y = 100/(1 + 10^X−LogIC50).

[2] = molecular target: T2, ULK3v1 (Homo sapiens, UniProt Q6PHR2); details: 1 µM; 100% no effect, 0% complete tracer displacement
T2 construct: Full-length kinase ORF (Promega, Madison, WI, USA) cloned in frame with a NanoLuc-vector; host or cells: HEK293T
Procedure: as §1, §2

[3] = molecular target: T3, CDK18-CCNY (Homo sapiens, UniProt Q07002); details: 100% no effect, 0% complete tracer displacement, read-out: Tracer bound
T3 construct: Full-length kinase ORF (Promega, Madison, WI, USA) cloned in frame with a NanoLuc-vector was transfected into HEK293T cells; host or cells: HEK293T
Procedure: as §1, §2

[4] = molecular target: T4, CDK3-CCNE1 (Homo sapiens, UniProt Q00526); details: 1 µM; 100% no effect, 0% complete tracer displacement
T4 construct: Full-length kinase ORF (Promega, Madison, WI, USA) cloned in frame with a NanoLuc-vector was transfected into HEK293T cells; host or cells: HEK293T
Procedure: as §1, §2

[5] = molecular target: T5, JAK2 (Homo sapiens, UniProt O60674); details: 1 µM; 100% no effect, 0% complete tracer displacement
T5 construct: Full-length kinase ORF (Promega, Madison, WI, USA) cloned in frame with a NanoLuc-vector was transfected into HEK293T cells; host or cells: HEK293T
Procedure: as §1, §2

[6] = molecular target: T6, FGFR2 (Homo sapiens, UniProt P21802); details: 100% no effect, 0% complete tracer displacement, read-out: Tracer bound
T6 construct: Full-length kinase ORF (Promega, Madison, WI, USA) cloned in frame with a NanoLuc-vector was transfected into HEK293T cells; host or cells: HEK293T
Procedure: as §1, §2

[7] = molecular target: T7, CDK20-CCNH (Homo sapiens, UniProt Q8IZL9); details: 100% no effect, 0% complete tracer displacement, read-out: Tracer bound
T7 construct: Full-length kinase ORF (Promega, Madison, WI, USA) cloned in frame with a NanoLuc-vector was transfected into HEK293T cells; host or cells: HEK293T
Procedure: as §1, §2

[8] = molecular target: T8, LIMK2 (Homo sapiens, UniProt P53671); details: 100% no effect, 0% complete tracer displacement, read-out: Tracer bound
T8 construct: Full-length kinase ORF (Promega, Madison, WI, USA) cloned in frame with a NanoLuc-vector was transfected into HEK293T cells; host or cells: HEK293T
Procedure: as §1, §2

[9] = molecular target: T9, NEK3 (Homo sapiens, UniProt P51956); details: 100% no effect, 0% complete tracer displacement, read-out: Tracer bound
T9 construct: Full-length kinase ORF (Promega, Madison, WI, USA) cloned in frame with a NanoLuc-vector was transfected into HEK293T cells; host or cells: HEK293T
Procedure: as §1, §2

[10] = molecular target: T10, MAP4K3 (Homo sapiens, UniProt Q8IVH8); details: 1 µM; 100% no effect, 0% complete tracer displacement
T10 construct: Full-length kinase ORF (Promega, Madison, WI, USA) cloned in frame with a NanoLuc-vector was transfected into HEK293T cells; host or cells: HEK293T
Procedure: as §1, §2

[11] = molecular target: T11, BRSK1 (Homo sapiens, UniProt Q8TDC3); details: 100% no effect, 0% complete tracer displacement, read-out: Tracer bound
T11 construct: Full-length kinase ORF (Promega, Madison, WI, USA) cloned in frame with a NanoLuc-vector was transfected into HEK293T cells; host or cells: HEK293T
Procedure: as §1, §2

[12] = molecular target: T12, TNK1 (Homo sapiens, UniProt Q13470); details: 100% no effect, 0% complete tracer displacement, read-out: Tracer bound
T12 construct: Full-length kinase ORF (Promega, Madison, WI, USA) cloned in frame with a NanoLuc-vector; host or cells: HEK293T
Procedure: as §1, §2

[13] = molecular target: T13, MLTK (Homo sapiens, UniProt Q9NYL2); details: 100% no effect, 0% complete tracer displacement, read-out: Tracer bound
T13 construct: Full-length kinase ORF (Promega, Madison, WI, USA) cloned in frame with a NanoLuc-vector was transfected into HEK293T cells; host or cells: HEK293T
Procedure: as §1, §2

[14] = molecular target: T14, MAPK9 (Homo sapiens, UniProt P45984); details: 1 µM; 100% no effect, 0% complete tracer displacement
T14 construct: Full-length kinase ORF (Promega, Madison, WI, USA) cloned in frame with a NanoLuc-vector was transfected into HEK293T cells; host or cells: HEK293T
Procedure: as §1, §2

[15] = molecular target: T15, CDK17-CCNY (Homo sapiens, UniProt Q00537); details: 100% no effect, 0% complete tracer displacement, read-out: Tracer bound
T15 construct: Full-length kinase ORF (Promega, Madison, WI, USA) cloned in frame with a NanoLuc-vector was transfected into HEK293T cells; host or cells: HEK293T
Procedure: as §1, §2

[16] = molecular target: T16, CAMK2A (Homo sapiens, UniProt Q9UQM7); details: 100% no effect, 0% complete tracer displacement, read-out: Tracer bound
T16 construct: Full-length kinase ORF (Promega, Madison, WI, USA) cloned in frame with a NanoLuc-vector was transfected into HEK293T cells; host or cells: HEK293T
Procedure: as §1, §2

[17] = molecular target: T17, CDK5-CDK5R2 (Homo sapiens, UniProt Q00535); details: 100% no effect, 0% complete tracer displacement, read-out: Tracer bound
T17 construct: Full-length kinase ORF (Promega, Madison, WI, USA) cloned in frame with a NanoLuc-vector was transfected into HEK293T cells; host or cells: HEK293T
Procedure: as §1, §2

[18] = molecular target: T18, TEK (Homo sapiens, UniProt Q02763); details: 100% no effect, 0% complete tracer displacement, read-out: Tracer bound
T18 construct: Full-length kinase ORF (Promega, Madison, WI, USA) cloned in frame with a NanoLuc-vector was transfected into HEK293T cells; host or cells: HEK293T
Procedure: as §1, §2

[19] = molecular target: T19, RET (Homo sapiens, UniProt P07949); details: 100% no effect, 0% complete tracer displacement, read-out: Tracer bound
T19 construct: Full-length kinase ORF (Promega, Madison, WI, USA) cloned in frame with a NanoLuc-vector was transfected into HEK293T cells; host or cells: HEK293T
Procedure: as §1, §2

[20] = molecular target: T20, RPS6KA6 (Homo sapiens, UniProt Q9UK32); details: 1 µM; 100% no effect, 0% complete tracer displacement
T20 construct: Full-length kinase ORF (Promega, Madison, WI, USA) cloned in frame with a NanoLuc-vector was transfected into HEK293T cells; host or cells: HEK293T
Procedure: as §1, §2

[21] = molecular target: T21, LATS1 (Homo sapiens, UniProt O95835); details: 100% no effect, 0% complete tracer displacement, read-out: Tracer bound
T21 construct: Full-length kinase ORF (Promega, Madison, WI, USA) cloned in frame with a NanoLuc-vector was transfected into HEK293T cells; host or cells: HEK293T
Procedure: as §1, §2

[22] = molecular target: T22, MAPK6 (Homo sapiens, UniProt Q16659); details: 100% no effect, 0% complete tracer displacement, read-out: Tracer bound
T22 construct: Full-length kinase ORF (Promega, Madison, WI, USA) cloned in frame with a NanoLuc-vector was transfected into HEK293T cells; host or cells: HEK293T
Procedure: as §1, §2

[23] = molecular target: T23, PRKAA1 (Homo sapiens, UniProt Q13131); details: 100% no effect, 0% complete tracer displacement, read-out: Tracer bound
T23 construct: Full-length kinase ORF (Promega, Madison, WI, USA) cloned in frame with a NanoLuc-vector was transfected into HEK293T cells; host or cells: HEK293T
Procedure: as §1, §2

[24] = molecular target: T24, TNK2 (Homo sapiens, UniProt Q07912); details: 100% no effect, 0% complete tracer displacement, read-out: Tracer bound
T24 construct: Full-length kinase ORF (Promega, Madison, WI, USA) cloned in frame with a NanoLuc-vector; host or cells: HEK293T
Procedure: as §1, §2

[25] = molecular target: T25, ULK2 (Homo sapiens, UniProt Q8IYT8); details: 100% no effect, 0% complete tracer displacement, read-out: Tracer bound
T25 construct: Full-length kinase ORF (Promega, Madison, WI, USA) cloned in frame with a NanoLuc-vector; host or cells: HEK293T
Procedure: as §1, §2

[26] = molecular target: T26, FGFR4 (Homo sapiens, UniProt P22455); details: 100% no effect, 0% complete tracer displacement, read-out: Tracer bound
T26 construct: Full-length kinase ORF (Promega, Madison, WI, USA) cloned in frame with a NanoLuc-vector was transfected into HEK293T cells; host or cells: HEK293T
Procedure: as §1, §2

[27] = molecular target: T27, CSNK1G2 (Homo sapiens, UniProt P78368); details: 1 µM; 100% no effect, 0% complete tracer displacement
T27 construct: Full-length kinase ORF (Promega, Madison, WI, USA) cloned in frame with a NanoLuc-vector was transfected into HEK293T cells; host or cells: HEK293T
Procedure: as §1, §2

[28] = molecular target: T28, RPS6KA2 (Homo sapiens, UniProt Q15349); details: 100% no effect, 0% complete tracer displacement, read-out: Tracer bound
T28 construct: Full-length kinase ORF (Promega, Madison, WI, USA) cloned in frame with a NanoLuc-vector was transfected into HEK293T cells; host or cells: HEK293T
Procedure: as §1, §2

[29] = molecular target: T29, PRKCE-PMA (Homo sapiens, UniProt Q02156); details: 100% no effect, 0% complete tracer displacement, read-out: Tracer bound
T29 construct: Full-length kinase ORF (Promega, Madison, WI, USA) cloned in frame with a NanoLuc-vector was transfected into HEK293T cells; host or cells: HEK293T
Procedure: as §1, §2

[30] = molecular target: T30, MAP4K5 (Homo sapiens, UniProt Q9Y4K4); details: 100% no effect, 0% complete tracer displacement, read-out: Tracer bound
T30 construct: Full-length kinase ORF (Promega, Madison, WI, USA) cloned in frame with a NanoLuc-vector was transfected into HEK293T cells; host or cells: HEK293T
Procedure: as §1, §2

T4 sequence (Q00526 whole entry): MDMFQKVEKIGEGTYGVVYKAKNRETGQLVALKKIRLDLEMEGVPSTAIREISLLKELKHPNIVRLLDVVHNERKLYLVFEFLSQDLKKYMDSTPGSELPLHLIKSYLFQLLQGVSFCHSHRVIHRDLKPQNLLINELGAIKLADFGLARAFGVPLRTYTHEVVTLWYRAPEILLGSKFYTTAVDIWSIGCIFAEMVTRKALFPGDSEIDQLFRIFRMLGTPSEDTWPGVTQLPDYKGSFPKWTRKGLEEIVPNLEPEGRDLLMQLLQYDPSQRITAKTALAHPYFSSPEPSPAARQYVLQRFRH
T4 sequence (P24864 whole entry partner): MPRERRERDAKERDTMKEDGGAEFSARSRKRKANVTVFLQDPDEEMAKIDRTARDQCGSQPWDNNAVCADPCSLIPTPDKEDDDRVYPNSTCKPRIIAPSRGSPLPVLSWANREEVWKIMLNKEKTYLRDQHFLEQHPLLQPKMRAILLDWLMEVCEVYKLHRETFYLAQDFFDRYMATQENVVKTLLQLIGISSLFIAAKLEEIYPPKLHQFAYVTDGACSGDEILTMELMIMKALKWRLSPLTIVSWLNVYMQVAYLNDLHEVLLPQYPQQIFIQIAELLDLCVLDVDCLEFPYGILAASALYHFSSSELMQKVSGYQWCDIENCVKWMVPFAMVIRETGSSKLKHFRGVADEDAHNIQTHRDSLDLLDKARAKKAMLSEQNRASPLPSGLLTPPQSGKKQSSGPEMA
T12 sequence (Q13470 whole entry): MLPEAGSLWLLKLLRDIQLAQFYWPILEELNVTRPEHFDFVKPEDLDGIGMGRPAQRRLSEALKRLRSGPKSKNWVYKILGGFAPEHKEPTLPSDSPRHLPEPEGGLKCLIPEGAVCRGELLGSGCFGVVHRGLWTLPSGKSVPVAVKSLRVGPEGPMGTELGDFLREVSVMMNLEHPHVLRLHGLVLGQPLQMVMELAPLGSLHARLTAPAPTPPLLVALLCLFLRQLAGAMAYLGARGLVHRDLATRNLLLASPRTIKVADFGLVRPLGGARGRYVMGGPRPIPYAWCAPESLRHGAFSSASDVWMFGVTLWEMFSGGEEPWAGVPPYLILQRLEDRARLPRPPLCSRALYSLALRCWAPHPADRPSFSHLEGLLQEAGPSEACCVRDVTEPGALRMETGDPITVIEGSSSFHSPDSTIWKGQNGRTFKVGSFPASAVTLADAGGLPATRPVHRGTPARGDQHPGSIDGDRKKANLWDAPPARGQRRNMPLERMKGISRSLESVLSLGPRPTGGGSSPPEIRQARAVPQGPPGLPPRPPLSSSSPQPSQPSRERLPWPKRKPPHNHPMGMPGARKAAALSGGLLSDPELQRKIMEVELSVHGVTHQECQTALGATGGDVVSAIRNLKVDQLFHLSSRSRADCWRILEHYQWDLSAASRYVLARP
T3 sequence (Q07002 whole entry): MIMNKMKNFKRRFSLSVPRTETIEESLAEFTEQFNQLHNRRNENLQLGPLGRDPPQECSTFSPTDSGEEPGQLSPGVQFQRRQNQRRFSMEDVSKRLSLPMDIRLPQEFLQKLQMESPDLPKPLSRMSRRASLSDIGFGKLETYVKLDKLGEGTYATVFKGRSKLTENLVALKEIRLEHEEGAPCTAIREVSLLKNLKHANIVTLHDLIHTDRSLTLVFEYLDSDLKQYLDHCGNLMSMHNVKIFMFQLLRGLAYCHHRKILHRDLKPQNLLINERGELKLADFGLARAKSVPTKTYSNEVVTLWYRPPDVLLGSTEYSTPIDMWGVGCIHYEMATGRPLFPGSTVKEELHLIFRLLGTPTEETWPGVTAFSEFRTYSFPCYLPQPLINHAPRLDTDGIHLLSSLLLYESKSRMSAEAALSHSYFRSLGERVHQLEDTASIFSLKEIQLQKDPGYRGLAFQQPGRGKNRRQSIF
T3 sequence (Q8ND76 whole entry partner): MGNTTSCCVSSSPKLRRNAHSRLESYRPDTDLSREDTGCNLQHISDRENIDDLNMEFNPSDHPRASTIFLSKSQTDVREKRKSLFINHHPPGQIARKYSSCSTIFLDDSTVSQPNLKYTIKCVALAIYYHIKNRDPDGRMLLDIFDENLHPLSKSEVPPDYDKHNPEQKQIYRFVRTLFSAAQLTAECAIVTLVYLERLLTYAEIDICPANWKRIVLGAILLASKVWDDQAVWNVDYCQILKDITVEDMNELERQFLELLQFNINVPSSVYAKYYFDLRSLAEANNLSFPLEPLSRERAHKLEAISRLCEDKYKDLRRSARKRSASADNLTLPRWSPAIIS
T1 sequence (O00444 whole entry): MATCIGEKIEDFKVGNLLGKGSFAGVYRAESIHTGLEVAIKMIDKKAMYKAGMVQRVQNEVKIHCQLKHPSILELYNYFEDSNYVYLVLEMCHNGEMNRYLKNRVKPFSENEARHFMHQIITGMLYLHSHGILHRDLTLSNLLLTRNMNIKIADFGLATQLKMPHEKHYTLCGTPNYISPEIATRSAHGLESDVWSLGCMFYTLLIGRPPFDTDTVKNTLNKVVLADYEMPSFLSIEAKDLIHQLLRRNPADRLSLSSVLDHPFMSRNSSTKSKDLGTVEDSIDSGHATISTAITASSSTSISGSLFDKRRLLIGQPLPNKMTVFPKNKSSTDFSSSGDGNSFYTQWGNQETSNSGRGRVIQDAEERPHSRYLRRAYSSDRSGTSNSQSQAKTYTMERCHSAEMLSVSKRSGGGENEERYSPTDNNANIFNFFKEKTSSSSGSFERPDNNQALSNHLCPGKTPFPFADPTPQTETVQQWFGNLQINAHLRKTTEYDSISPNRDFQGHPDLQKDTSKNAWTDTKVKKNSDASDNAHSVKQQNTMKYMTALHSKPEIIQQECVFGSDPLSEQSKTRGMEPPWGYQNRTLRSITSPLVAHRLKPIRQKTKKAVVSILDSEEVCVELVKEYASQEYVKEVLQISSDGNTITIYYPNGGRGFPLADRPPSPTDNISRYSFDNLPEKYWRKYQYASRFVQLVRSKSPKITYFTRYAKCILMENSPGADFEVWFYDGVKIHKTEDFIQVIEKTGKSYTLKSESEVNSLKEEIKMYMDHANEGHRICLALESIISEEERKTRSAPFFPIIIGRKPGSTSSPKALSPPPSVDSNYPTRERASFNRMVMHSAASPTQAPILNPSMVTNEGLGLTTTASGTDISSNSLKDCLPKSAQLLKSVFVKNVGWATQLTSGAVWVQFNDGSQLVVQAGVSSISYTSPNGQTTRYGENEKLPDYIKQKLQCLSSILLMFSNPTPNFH
T25 sequence (Q8IYT8 whole entry): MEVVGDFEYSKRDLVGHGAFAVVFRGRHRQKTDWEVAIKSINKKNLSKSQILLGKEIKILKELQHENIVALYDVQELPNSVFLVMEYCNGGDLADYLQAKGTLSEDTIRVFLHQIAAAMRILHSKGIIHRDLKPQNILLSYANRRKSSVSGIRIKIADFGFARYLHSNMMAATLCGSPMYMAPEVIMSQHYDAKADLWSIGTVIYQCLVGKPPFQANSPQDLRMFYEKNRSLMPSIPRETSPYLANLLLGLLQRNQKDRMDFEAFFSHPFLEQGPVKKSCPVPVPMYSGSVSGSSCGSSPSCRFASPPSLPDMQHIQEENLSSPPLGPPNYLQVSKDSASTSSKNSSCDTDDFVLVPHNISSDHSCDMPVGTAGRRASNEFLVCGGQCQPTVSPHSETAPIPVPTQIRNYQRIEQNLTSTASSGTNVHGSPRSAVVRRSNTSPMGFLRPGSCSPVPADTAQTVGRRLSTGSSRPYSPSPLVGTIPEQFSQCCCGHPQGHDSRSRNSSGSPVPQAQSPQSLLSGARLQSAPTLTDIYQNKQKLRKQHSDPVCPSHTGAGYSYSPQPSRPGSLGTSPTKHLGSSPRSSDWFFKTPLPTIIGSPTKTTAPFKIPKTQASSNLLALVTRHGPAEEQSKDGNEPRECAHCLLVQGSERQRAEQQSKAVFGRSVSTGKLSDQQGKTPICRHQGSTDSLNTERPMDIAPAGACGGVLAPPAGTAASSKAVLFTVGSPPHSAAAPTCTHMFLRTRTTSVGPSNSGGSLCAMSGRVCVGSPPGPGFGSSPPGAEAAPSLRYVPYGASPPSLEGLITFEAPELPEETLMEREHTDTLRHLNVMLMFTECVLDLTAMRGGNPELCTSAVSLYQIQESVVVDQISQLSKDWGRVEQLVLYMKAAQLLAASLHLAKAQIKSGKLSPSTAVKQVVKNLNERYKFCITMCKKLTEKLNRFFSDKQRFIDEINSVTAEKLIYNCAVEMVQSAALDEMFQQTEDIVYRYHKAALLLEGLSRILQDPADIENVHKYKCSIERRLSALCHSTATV
T30 sequence (Q9Y4K4 whole entry): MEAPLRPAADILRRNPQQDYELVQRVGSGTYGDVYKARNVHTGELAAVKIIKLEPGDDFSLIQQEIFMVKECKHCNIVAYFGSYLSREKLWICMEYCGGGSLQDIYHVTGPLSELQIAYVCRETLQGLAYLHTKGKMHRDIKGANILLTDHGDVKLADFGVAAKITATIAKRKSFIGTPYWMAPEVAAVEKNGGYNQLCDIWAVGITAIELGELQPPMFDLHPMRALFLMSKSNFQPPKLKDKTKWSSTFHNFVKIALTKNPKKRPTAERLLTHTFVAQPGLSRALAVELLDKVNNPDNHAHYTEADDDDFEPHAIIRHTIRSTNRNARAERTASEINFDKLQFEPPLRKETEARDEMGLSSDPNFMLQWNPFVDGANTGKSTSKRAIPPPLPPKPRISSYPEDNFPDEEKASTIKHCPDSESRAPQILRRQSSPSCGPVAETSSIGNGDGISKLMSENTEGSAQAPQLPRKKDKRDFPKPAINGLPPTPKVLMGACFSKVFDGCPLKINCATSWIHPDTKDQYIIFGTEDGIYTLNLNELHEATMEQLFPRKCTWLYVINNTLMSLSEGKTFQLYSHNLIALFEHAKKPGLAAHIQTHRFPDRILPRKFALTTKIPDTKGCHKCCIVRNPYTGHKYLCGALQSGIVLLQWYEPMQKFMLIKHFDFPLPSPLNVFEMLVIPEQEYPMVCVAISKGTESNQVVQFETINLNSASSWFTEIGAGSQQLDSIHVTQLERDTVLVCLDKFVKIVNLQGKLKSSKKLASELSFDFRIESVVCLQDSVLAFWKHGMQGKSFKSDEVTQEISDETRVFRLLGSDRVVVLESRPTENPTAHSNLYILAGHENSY

remaining activity at 1 µM [1]: 112%
Tracer bound [2]: 107.8%
remaining activity at 1 µM [3]: 95.9%
Tracer bound [4]: 117.0%
Tracer bound [5]: 105.7%
remaining activity at 1 µM [6]: 109%
remaining activity at 1 µM [7]: 108%
remaining activity at 1 µM [8]: 105%
remaining activity at 1 µM [9]: 100%
Tracer bound [10]: 91.1%
remaining activity at 1 µM [11]: 107%
remaining activity at 1 µM [12]: 120%
remaining activity at 1 µM [13]: 54.8%
Tracer bound [14]: 101.6%
remaining activity at 1 µM [15]: 81.3%
remaining activity at 1 µM [16]: 102%
remaining activity at 1 µM [17]: 104%
remaining activity at 1 µM [18]: 85.7%
remaining activity at 1 µM [19]: 83.5%
Tracer bound [20]: 107.5%
remaining activity at 1 µM [21]: 97.8%
remaining activity at 1 µM [22]: 120%
remaining activity at 1 µM [23]: 110%
remaining activity at 1 µM [24]: 118%
remaining activity at 1 µM [25]: 98.6%
remaining activity at 1 µM [26]: 92.7%
Tracer bound [27]: 92.4%
remaining activity at 1 µM [28]: 114%
remaining activity at 1 µM [29]: 78.3%
remaining activity at 1 µM [30]: 94%
SMILES: Cc1ncsc1-c1ccc([C@H](C)NC(=O)[C@@H]2C[C@@H](O)CN2C(=O)[C@@H](NC(=O)[C@H]2CC[C@H](C(=O)N3CCN(CCNC(=O)c4cc(Oc5ccc(NC(=O)Nc6cc(C(C)(C)C)on6)cc5)ccn4)CC3)CC2)C(C)(C)C)cc1 [MA191, 4-(4-(3-(5-(tert-Butyl)isoxazol-3-yl)ureido)phenoxy)-N-(2-(4-(trans-4-(((S)-1-((2S,4R)-4-hydroxy-2-(((S)-1-(4-(4-methylthiazol-5-yl)phenyl)ethyl)carbamoyl)pyrrolidin-1-yl)-3,3-dimethyl-1-oxobutan-2-yl)carbamoyl)cyclohexanecarbonyl)piperazin-1-yl)ethyl)picolinamide]
